Test results reported in US20250197372A1 (priority 2020, published 2025).

Experiments:
[1] = target: T1, recombinant human GBA (beta-glucocerebrosidase) (Homo sapiens, UniProt P04062); test: Beta-glucocerebrosidase (GBA, glucosylceramidase) assay (4-methylumbelliferyl-beta-D-pyranoside substrate, fluorescence); type: biochemical
T1 sequence (P04062 40-536): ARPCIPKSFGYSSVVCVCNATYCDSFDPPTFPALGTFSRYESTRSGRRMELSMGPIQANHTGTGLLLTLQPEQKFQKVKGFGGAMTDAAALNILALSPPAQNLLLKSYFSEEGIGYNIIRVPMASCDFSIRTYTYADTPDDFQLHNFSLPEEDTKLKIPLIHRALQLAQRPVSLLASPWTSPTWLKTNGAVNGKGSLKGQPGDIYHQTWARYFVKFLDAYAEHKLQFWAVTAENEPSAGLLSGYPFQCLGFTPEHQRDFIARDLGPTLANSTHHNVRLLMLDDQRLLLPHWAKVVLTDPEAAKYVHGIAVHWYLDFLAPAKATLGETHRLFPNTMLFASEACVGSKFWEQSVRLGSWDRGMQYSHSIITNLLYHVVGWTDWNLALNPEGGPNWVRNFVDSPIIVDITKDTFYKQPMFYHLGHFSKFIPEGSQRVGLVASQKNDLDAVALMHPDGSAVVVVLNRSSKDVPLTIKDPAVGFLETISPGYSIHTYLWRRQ
Experimental: Beta-glucocerebrosidase (GBA, also referred to glucosylceramidase): To analyze inhibitory effects of a test compound, commercially available recombinant human GBA was incubated with multiple dilutions of test compound for 60 minutes at 37° C. 4-methylumbelliferyl-beta-D-pyranoside was then introduced to the mixture as substrate. Following incubation for 60 minutes at 37° C., 1,4-methyllumbelliferone was generated, and the reaction was stopped with the stop solution (0.5 M glycine; 0.3 M NaOH, pH 10). 1,4-methyllumbelliferone was detected by fluorescence (excitation at 365 nm, emission at 440 nm). Relative fluorescence compared to untreated enzymatic activity and test compound concentration is then plotted as a function of percent inhibition. The IC50 was determined using a 4-PL curve fit as the measure of relative inhibitory activity of each test compound (see Table 3).

[2] = target: rat sucrase (partially purified alpha-glucosidase from intestinal rat powder) (Rattus norvegicus, UniProt P23739); test: Intestinal alpha-glucosidase assay, sucrose substrate (Glucose GO Kit); type: biochemical
Sequence of rat sucrase (partially purified alpha-glucosidase from intestinal rat powder) (P23739 whole entry): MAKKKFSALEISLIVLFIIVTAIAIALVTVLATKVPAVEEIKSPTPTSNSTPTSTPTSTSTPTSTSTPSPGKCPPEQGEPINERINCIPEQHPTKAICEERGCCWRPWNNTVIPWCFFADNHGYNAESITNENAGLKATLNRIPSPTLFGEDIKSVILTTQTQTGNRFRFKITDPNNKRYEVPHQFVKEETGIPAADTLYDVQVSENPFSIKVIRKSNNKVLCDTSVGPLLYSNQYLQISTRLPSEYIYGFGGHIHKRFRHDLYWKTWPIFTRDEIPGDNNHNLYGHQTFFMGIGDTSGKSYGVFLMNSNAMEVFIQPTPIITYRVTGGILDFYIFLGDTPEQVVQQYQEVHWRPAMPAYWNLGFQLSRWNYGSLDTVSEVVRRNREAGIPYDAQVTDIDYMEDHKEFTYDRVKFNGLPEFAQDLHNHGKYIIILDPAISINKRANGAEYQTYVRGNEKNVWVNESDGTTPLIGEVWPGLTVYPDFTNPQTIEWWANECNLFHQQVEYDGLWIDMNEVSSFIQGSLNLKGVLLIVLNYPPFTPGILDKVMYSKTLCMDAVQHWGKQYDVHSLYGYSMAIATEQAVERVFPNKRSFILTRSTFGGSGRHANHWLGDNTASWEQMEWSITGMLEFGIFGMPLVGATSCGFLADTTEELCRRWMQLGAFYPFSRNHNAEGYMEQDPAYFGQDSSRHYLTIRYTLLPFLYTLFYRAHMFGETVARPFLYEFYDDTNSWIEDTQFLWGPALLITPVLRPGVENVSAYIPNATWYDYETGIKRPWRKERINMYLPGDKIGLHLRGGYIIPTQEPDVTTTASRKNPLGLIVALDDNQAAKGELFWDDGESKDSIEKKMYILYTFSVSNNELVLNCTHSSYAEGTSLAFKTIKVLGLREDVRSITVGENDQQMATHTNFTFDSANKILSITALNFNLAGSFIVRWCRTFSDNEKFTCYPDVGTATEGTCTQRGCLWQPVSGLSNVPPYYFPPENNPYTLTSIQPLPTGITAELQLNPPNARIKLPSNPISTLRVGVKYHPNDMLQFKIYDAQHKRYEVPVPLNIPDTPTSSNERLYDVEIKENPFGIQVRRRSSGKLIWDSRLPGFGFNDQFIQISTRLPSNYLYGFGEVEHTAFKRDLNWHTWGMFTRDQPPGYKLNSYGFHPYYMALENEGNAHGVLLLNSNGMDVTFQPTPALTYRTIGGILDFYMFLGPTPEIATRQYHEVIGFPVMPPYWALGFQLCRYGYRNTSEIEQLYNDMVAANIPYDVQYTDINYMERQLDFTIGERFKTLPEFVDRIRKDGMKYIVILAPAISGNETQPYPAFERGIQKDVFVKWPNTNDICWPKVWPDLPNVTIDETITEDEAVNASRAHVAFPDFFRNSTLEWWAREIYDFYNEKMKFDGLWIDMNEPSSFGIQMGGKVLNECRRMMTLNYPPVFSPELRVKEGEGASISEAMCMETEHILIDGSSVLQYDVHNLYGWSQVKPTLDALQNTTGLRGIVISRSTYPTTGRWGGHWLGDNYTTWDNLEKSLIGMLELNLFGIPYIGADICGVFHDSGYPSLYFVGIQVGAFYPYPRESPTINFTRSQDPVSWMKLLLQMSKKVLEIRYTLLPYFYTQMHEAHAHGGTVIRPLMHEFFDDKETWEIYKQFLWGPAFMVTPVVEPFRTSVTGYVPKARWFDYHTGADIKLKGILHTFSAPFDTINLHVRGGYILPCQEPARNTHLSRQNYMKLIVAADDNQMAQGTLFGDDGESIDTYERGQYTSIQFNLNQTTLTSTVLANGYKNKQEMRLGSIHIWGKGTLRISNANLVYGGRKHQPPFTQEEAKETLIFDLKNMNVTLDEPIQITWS
Experimental: Intestinal alpha-glucosidases (rat maltase and sucrase): Intestinal alpha-glucosidases act upon 1,4-alpha-glucoside bonds, breaking down disaccharides to glucose. To perform this assay, partially purified alpha-glucosidase from intestinal rat powder was incubated for 60 minutes at 37° C. with multiple dilutions of test compounds. Maltose or Sucrose respectively was then introduced as substrate to the mixture and incubated for 30 minutes at 37° C. The reaction was stopped by a 5-minute incubation at 90° C. and the resultant glucose production is detected using Sigma's Glucose GO Kit. Percent inhibition was then plotted as a function of concentration for each test compound. The IC50 was determined using a 4-PL curve fit and serves as the measure of relative inhibition of each test compound (see Table 3).

Compound	IC50 [1] [nM]	IC50 [2] [nM]
CS(=O)(=O)c1cc(NCCCCCCN2C[C@H](O)[C@@H](O)[C@H](O)[C@H]2CO)cc(-c2ncccn2)c1 [Compound 1128, (2R,3R,4R,5S)-2-(hydroxymethyl)-1-(6-{[3-methanesulfonyl-5-(pyrimidin-2-yl)phenyl]amino}hexyl)piperidine-3,4,5-triol]	5200	39
O=Cc1cc(NCCCCCCN2C[C@H](O)[C@@H](O)[C@H](O)[C@H]2CO)cc(-c2ncccn2)c1 [Compound 1129, 3-(pyrimidin-2-yl)-5-({6-[(2R,3R,4R,5S)-3,4,5-trihydroxy-2-(hydroxymethyl)piperidin-1-yl]hexyl}amino)benzaldehyde]	2730	56
N#Cc1cc(NCCCCCCN2C[C@H](O)[C@@H](O)[C@H](O)[C@H]2CO)cc(-c2ncccn2)c1 [Compound 1130, 3-(pyrimidin-2-yl)-5-({6-[(2R,3R,4R,5S)-3,4,5-trihydroxy-2-(hydroxymethyl)piperidin-1-yl]hexyl}amino)benzonitrile]	974	30
OC[C@@H]1[C@@H](O)[C@H](O)[C@@H](O)CN1CCCCCCNc1cc(-c2ncccn2)cc(C(F)(F)F)c1 [Compound 1131, (2R,3R,4R,5S)-2-(hydroxymethyl)-1-(6-{[3-(pyrimidin-2-yl)-5-(trifluoromethyl)phenyl]amino}hexyl)piperidine-3,4,5-triol]	308	40
COc1cc(C#N)cc(NCCc2ccc(CCN3C[C@H](O)[C@@H](O)[C@H](O)[C@H]3CO)cc2)c1 [Compound 1133, 3-methoxy-5-{[2-(4-{2-[(2R,3R,4R,5S)-3,4,5-trihydroxy-2-(hydroxymethyl)piperidin-1-yl]ethyl}phenyl)ethyl]amino}benzonitrile]	4500	237
N#Cc1cc(Cl)cc(NCCc2ccc(CCN3C[C@H](O)[C@@H](O)[C@H](O)[C@H]3CO)cc2)c1 [Compound 1134, 3-chloro-5-{[2-(4-{2-[(2R,3R,4R,5S)-3,4,5-trihydroxy-2-(hydroxymethyl)piperidin-1-yl]ethyl}phenyl)ethyl]amino}benzonitrile]	2360	259
O=[N+]([O-])c1cc(C2CC2)ccc1NCCCCCCN1C[C@H](O)[C@@H](O)[C@H](O)[C@H]1CO [Compound 1136, (2R,3R,4R,5S)-1-{6-[(4-cyclopropyl-2-nitrophenyl)amino]hexyl}-2-(hydroxymethyl)piperidine-3,4,5-triol]	37	< 1
O=[N+]([O-])c1cc(-c2ccccc2)ccc1NCCCCCCN1C[C@H](O)[C@@H](O)[C@H](O)[C@H]1CO [Compound 1138, (2R,3R,4R,5S)-2-(hydroxymethyl)-1-[6-({3-nitro-[1,1′-biphenyl]-4-yl}amino)hexyl]piperidine-3,4,5-triol]	18	< 1
[N-]=[N+]=Nc1ccc(NCCc2cc(Br)cc(CCN3C[C@H](O)[C@@H](O)[C@H](O)[C@H]3CO)c2)c([N+](=O)[O-])c1 [Compound 1140, (2R,3R,4R,5S)-1-[2-(3-{2-[(4-azido-2-nitrophenyl)amino]ethyl}-5-bromophenyl)ethyl]-2-(hydroxymethyl)piperidine-3,4,5-triol]	674	4140
COc1cc(CC2CCOC2)cc(NCCCCCCN2C[C@H](O)[C@@H](O)[C@H](O)[C@H]2CO)c1 (stereo partly drawn) [Compound 1141, (2R,3R,4R,5S)-2-(hydroxymethyl)-1-[6-({3-methoxy-5-[(oxolan-3-yl)methyl]phenyl}amino)hexyl]piperidine-3,4,5-triol]	8060	696
[N-]=[N+]=Nc1ccc(NCCNc2cc(Cl)cc(CCN3C[C@H](O)[C@@H](O)[C@H](O)[C@H]3CO)c2)c([N+](=O)[O-])c1 [Compound 1143, (2R,3R,4R,5S)-1-{2-[3-({2-[(4-azido-2-nitrophenyl)amino]ethyl}amino)-5-chlorophenyl]ethyl}-2-(hydroxymethyl)piperidine-3,4,5-triol]	404	2010
COc1cc(Cc2ccccc2)cc(NCCCCCCN2C[C@H](O)[C@@H](O)[C@H](O)[C@H]2CO)c1 [Compound 1145, (2R,3R,4R,5S)-1-{6-[(3-benzyl-5-methoxyphenyl)amino]hexyl}-2-(hydroxymethyl)piperidine-3,4,5-triol]	458	3
COc1cc(NCCCCCCN2C[C@H](O)[C@@H](O)[C@H](O)[C@H]2CO)cc(C2CCCO2)c1 (stereo partly drawn) [Compound 1146, (2R,3R,4R,5S)-2-(hydroxymethyl)-1-(6-{[3-methoxy-5-(oxolan-2-yl)phenyl]amino}hexyl)piperidine-3,4,5-triol]	2170	92
COc1cc(NCCCCCCN2C[C@H](O)[C@@H](O)[C@H](O)[C@H]2CO)cc(C2=CCCO2)c1 [Compound 1147, (2R,3R,4R,5S)-1-(6-{[3-(4,5-dihydrofuran-2-yl)-5-methoxyphenyl]amino}hexyl)-2-(hydroxymethyl)piperidine-3,4,5-triol]	1980	40
COc1cc(NCCCCCCN2C[C@H](O)[C@@H](O)[C@H](O)[C@H]2CO)cc(C2CCCCC2)c1 [Compound 1148, (2R,3R,4R,5S)-1-{6-[(3-cyclohexyl-5-methoxyphenyl)amino]hexyl}-2-(hydroxymethyl)piperidine-3,4,5-triol]	2	1
COc1cc(NCCCCCCN2C[C@H](O)[C@@H](O)[C@H](O)[C@H]2CO)cc(C2=CCCCC2)c1 [Compound 1149, (2R,3R,4R,5S)-1-(6-{[3-(cyclohex-1-en-1-yl)-5-methoxy-phenyl]amino}hexyl)-2-(hydroxymethyl)piperidine-3,4,5-triol]	56	< 1
COc1cc(NCCCCCCN2C[C@H](O)[C@@H](O)[C@H](O)[C@H]2CO)cc(-c2ccccc2)c1 [Compound 1150, (2R,3R,4R,5S)-2-(hydroxymethyl)-1-[6-({5-methoxy-[1,1′-biphenyl]-3-yl}amino)hexyl]piperidine-3,4,5-triol]	193	< 1
CC(C)(C)c1cc(NCCCCCCN2C[C@H](O)[C@@H](O)[C@H](O)[C@H]2CO)cc(-c2ncccn2)c1 [Compound 1151, (2R,3R,4R,5S)-1-(6-{[3-tert-butyl-5-(pyrimidin-2-yl)phenyl]amino}hexyl)-2-(hydroxymethyl)piperidine-3,4,5-triol]	299	< 1
COc1cc(NCCc2ccc(CCN3C[C@H](O)[C@@H](O)[C@H](O)[C@H]3CO)cc2)cc(-c2ccco2)c1 [Compound 1153, (2R,3R,4R,5S)-1-{2-[4-(2-{[3-(furan-2-yl)-5-methoxy-phenyl]amino}ethyl)phenyl]ethyl}-2-(hydroxymethyl)piperidine-3,4,5-triol]	1090	2500
COc1cc(NCCc2ccc(CCN3C[C@H](O)[C@@H](O)[C@H](O)[C@H]3CO)cc2)cc(C2=CCOCC2)c1 [Compound 1154, (2R,3R,4R,5S)-1-{2-[4-(2-{[3-(3,6-dihydro-2H-pyran-4-yl)-5-methoxyphenyl]amino}ethyl)phenyl]ethyl}-2-(hydroxymethyl)piperidine-3,4,5-triol]	1700	2880
COc1cc(NCCc2ccc(CCN3C[C@H](O)[C@@H](O)[C@H](O)[C@H]3CO)cc2)cc(C2=COCCO2)c1 [Compound 1155, (2R,3R,4R,5S)-1-{2-[4-(2-{[3-(5,6-dihydro-1,4-dioxin-2-yl)-5-methoxyphenyl]amino}ethyl)phenyl]ethyl}-2-(hydroxymethyl)piperidine-3,4,5-triol]	3540	726
COc1cc(NCCc2ccc(CCN3C[C@H](O)[C@@H](O)[C@H](O)[C@H]3CO)cc2)cc(-c2ncccn2)c1 [Compound 1156, (2R,3R,4R,5S)-2-(hydroxymethyl)-1-{2-[4-(2-{[3-methoxy-5-(pyrimidin-2-yl)phenyl]amino}ethyl)phenyl]ethyl}piperidine-3,4,5-triol]	7130	610
COc1cc(NCCc2ccc(CCN3C[C@H](O)[C@@H](O)[C@H](O)[C@H]3CO)cc2)cc(-c2cccnn2)c1 [Compound 1157, (2R,3R,4R,5S)-2-(hydroxymethyl)-1-{2-[4-(2-{[3-methoxy-5-(pyridazin-3-yl)phenyl]amino}ethyl)phenyl]ethyl}piperidine-3,4,5-triol]	4590	228
